Data as given in patent publication US10752612B2, “PLK4 inhibitors” (LUDWIG INSTITUTE FOR CANCER RESEARCH LTD, priority 2015, dated 2020).

Target: T1, human Plk4 kinase domain (aa 2-275) (Homo sapiens, UniProt O00444)
T1 construct: purified 6×His-tagged human Plk4 kinase domain (aa 2-275); 6xHis; made in house; host or cells: E. coli
T1 sequence (O00444 2-275): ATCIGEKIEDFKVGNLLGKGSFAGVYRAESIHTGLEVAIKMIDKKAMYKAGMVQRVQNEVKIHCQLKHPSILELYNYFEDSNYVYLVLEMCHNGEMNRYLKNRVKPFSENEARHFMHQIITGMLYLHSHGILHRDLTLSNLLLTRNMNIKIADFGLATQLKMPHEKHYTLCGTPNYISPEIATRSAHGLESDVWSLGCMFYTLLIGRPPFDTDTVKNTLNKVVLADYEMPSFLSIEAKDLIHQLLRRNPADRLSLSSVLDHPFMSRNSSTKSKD
Test: Plk4 kinase assay (ADP-Glo)
Assay type: biochemical
Settings: Table 1
Summary of the method: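 Enzyme at 2.5-10 nM final, pH 8.0, reacted 4-16 hours at 25° C; ADP generation read by ADP-Glo luminescence. Ki derived from IC50 by Cheng-Prusoff or, for tight binders, Copeland formalism.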

IC50	SMILES
< 1000 nM	Cc1cc(Nc2nc(Sc3ccc(NC(=O)C4CC4)cc3)nc(N3CCN(C)CC3)c2C)n[nH]1
< 1000 nM	COc1c(Nc2cc(C)[nH]n2)nc(Sc2ccc(NC(=O)C3CC3)cc2)nc1N1CCN(C(C)=O)CC1
< 1000 nM	CCN1CCN(c2nc(Sc3ccc(NC(=O)C4CC4)cc3)nc(Nc3cc(C)[nH]n3)c2OC)CC1
< 1000 nM	COCCN1CCN(c2nc(Sc3ccc(NC(=O)C4CC4)cc3)nc(Nc3cc(C)[nH]n3)c2OC)CC1
< 1000 nM	COc1c(Nc2cc(C)[nH]n2)nc(Sc2ccc(NC(=O)C3CC3)cc2)nc1N1CCN(CCN(C)C)CC1
< 1000 nM	Cc1cc(Nc2nc(Sc3ccc(NC(=O)C4CC4)cc3)nc(N(C)C(C)C)c2C)n[nH]1
< 1000 nM	COCCNc1nc(Sc2ccc(NC(=O)C3CC3)cc2)nc(Nc2cc(C)[nH]n2)c1C
< 1000 nM	Cc1cc(Nc2nc(Sc3ccc(NC(=O)C4CC4)cc3)nc(N3CCCCC3)c2C)n[nH]1
< 1000 nM	CNc1nc(Sc2ccc(NC(=O)C3CC3)cc2)nc(Nc2cc(C)[nH]n2)c1C
< 1000 nM	COc1c(Nc2cc(C)[nH]n2)nc(Sc2ccc(S(=O)(=O)C(C)(C)c3cccc([N+](=O)[O-])c3F)cc2F)nc1N1CC[C@H](NC(C)=O)C1
< 1000 nM	COc1c(Nc2cc(C)[nH]n2)nc(Sc2ccc(S(=O)(=O)C(C)(C)c3cccc([N+](=O)[O-])c3F)cc2F)nc1N1CCN(CC(=O)N(C)C)CC1
< 1000 nM	COc1c(Nc2cc(C)[nH]n2)nc(Sc2ccc(S(=O)(=O)C(C)(C)c3cccc([N+](=O)[O-])c3F)cc2F)nc1N1CC[C@H](N(C)C)C1
< 1000 nM	COc1c(Nc2cc(C)[nH]n2)nc(Sc2ccc(S(=O)(=O)C(C)(C)c3cccc([N+](=O)[O-])c3F)cc2F)nc1N1CC[C@@H](N(C)C)C1
< 1000 nM	COc1c(Nc2cc(C)[nH]n2)nc(Sc2ccc(S(=O)(=O)C(C)(C)c3c(F)c(F)cc(F)c3F)cc2F)nc1N1CCC(NC(C)=O)CC1
< 1000 nM	COc1c(Nc2cc(C)[nH]n2)nc(Sc2ccc(S(=O)(=O)C(C)(C)c3c(F)c(F)cc(F)c3F)cc2F)nc1N1CC[C@H](N(C)C)C1
< 1000 nM	COc1c(Nc2cc(C)[nH]n2)nc(Sc2ccc(S(=O)(=O)C(C)(C)c3c(F)c(F)cc(F)c3F)cc2F)nc1N1CCC(CC(=O)N(C)C)CC1
< 1000 nM	COc1c(Nc2cc(C)[nH]n2)nc(Sc2ccc(S(=O)(=O)C(C)(C)c3c(F)c(F)cc(F)c3F)cc2F)nc1N1CC[C@@H](N(C)C)C1
< 1000 nM	COc1c(Nc2cc(C)[nH]n2)nc(Sc2ccc(S(=O)(=O)C(C)(C)c3c(F)c(F)c(F)c(F)c3F)cc2F)nc1N1CCC(N(C)C)CC1
< 1000 nM	COc1c(Nc2cc(C)[nH]n2)nc(Sc2ccc(S(=O)(=O)C(C)(C)c3c(F)c(F)c(F)c(F)c3F)cc2F)nc1N1CCC(CCN(C)C)CC1
< 1000 nM	COc1c(Nc2cc(C)[nH]n2)nc(Sc2ccc(S(=O)(=O)C(C)(C)c3c(F)c(F)cc(F)c3F)cc2F)nc1N1CCC(NC(C)=O)C1 (stereo not shown)
< 1000 nM	COc1c(Nc2cc(C)[nH]n2)nc(Sc2ccc(S(=O)(=O)C(C)(C)c3c(F)c(F)cc(F)c3F)cc2F)nc1N1CCC(OC)CC1
< 1000 nM	COc1ccc(CS(=O)(=O)c2ccc(Sc3nc(Nc4cc(C)[nH]n4)c(OC)c(N4CCOCC4)n3)c(F)c2)cc1
< 1000 nM	CNC1CCN(c2nc(Sc3ccc(S(=O)(=O)C(C)(C)c4cccc([N+](=O)[O-])c4F)cc3F)nc(Nc3cc(C)[nH]n3)c2OC)CC1

IC50	SMILES
< 1000 nM	COc1c(Nc2cc(C)[nH]n2)nc(Sc2ccc(S(=O)(=O)C(C)(C)c3cccnc3)cc2)nc1N1CCN(CCN(C)C)CC1
< 1000 nM	COc1c(Nc2cc(C)[nH]n2)nc(Sc2ccc(S(=O)(=O)Cc3cccc([N+](=O)[O-])c3F)cc2F)nc1N1CCN(C)CC1
< 1000 nM	COc1c(Nc2cc(C)[nH]n2)nc(Sc2ccc(S(=O)(=O)Cc3ccccc3)cc2)nc1N1CCN(Cc2ccncc2)CC1
< 1000 nM	COc1c(Nc2cc(C)[nH]n2)nc(Sc2ccc(S(=O)(=O)Cc3cccc(C#N)c3)cc2)nc1N1CCN(CCN(C)C)CC1
< 1000 nM	COc1ccccc1CS(=O)(=O)c1ccc(Sc2nc(Nc3cc(C)[nH]n3)c(OC)c(N3CCN(CCN(C)C)CC3)n2)cc1
< 1000 nM	COc1c(Nc2cc(C)[nH]n2)nc(Sc2ccc(S(=O)(=O)Cc3cccc(C)c3)cc2)nc1N1CCN(CCN(C)C)CC1
< 1000 nM	COc1cccc(CS(=O)(=O)c2ccc(Sc3nc(Nc4cc(C)[nH]n4)c(OC)c(N4CCN(CCN(C)C)CC4)n3)cc2)c1
< 1000 nM	CCOc1c(Nc2cc(C)[nH]n2)nc(Sc2ccc(NC(=O)C3CC3)cc2)nc1N1CCC(O)CC1
100 to 1000 nM	COc1c(Nc2cc(C)[nH]n2)nc(Sc2ccc(N)cc2)nc1N1CCN(CCN(C)C)CC1
100 to 1000 nM	COc1c(Nc2cc(C)[nH]n2)nc(Sc2ccccc2)nc1N1CCN(CCN(C)C)CC1
100 to 1000 nM	COc1c(Nc2cc(C)[nH]n2)nc(SC)nc1N1CCN(CCN(C)C)CC1
< 1000 nM	CC(=O)Nc1ccc(Sc2nc(Nc3cc(C)[nH]n3)c(C)c(N3CCC(O)CC3C)n2)cc1 (stereo not shown)
< 1000 nM	COc1c(Nc2cc(C)[nH]n2)nc(Sc2ccc(NC(C)=O)cc2)nc1N1CCN(CCN2CCOCC2)CC1
< 1000 nM	CC(=O)Nc1ccc(Sc2nc(Nc3cc(C)[nH]n3)c(C)c(N3CCC(OCCN(C)C)CC3)n2)cc1
< 1000 nM	CC(=O)Nc1ccc(Sc2nc(Nc3cc(C)[nH]n3)c(C)c(N3CCOC[C@@H]3C)n2)cc1
< 1000 nM	COc1c(Nc2cc(C)[nH]n2)nc(Sc2ccc(NC(C)=O)cc2)nc1N1CCN(CCN2CCCCC2)CC1
100 to 1000 nM	COc1c(Nc2cc(C)[nH]n2)nc(Sc2ccc(NC(C)=O)cc2)nc1N1CCC(OCCN(C)C)CC1
< 1000 nM	COc1c(Nc2cc(C)[nH]n2)nc(Sc2ccc(NC(C)=O)cc2)nc1N1CCN(CCCN(C)C)CC1
< 1000 nM	COc1c(Nc2c[nH]c(C)c2)nc(Sc2ccc(NC(C)=O)cc2)nc1N1CCC(O)C1 (stereo not shown)
< 1000 nM	CSc1nc(Nc2cc(C)[nH]n2)c(C)c(N2CCN(CCN(C)C)CC2)n1
< 1000 nM	COc1c(Nc2cc(C)[nH]n2)nc(Sc2ccc(NC(=O)C(F)(F)F)cc2)nc1N1CCN(CCN(C)C)CC1
< 1000 nM	CNC(=O)Nc1ccc(Sc2nc(Nc3cc(C)[nH]n3)c(OC)c(N3CCN(CCN(C)C)CC3)n2)cc1
< 1000 nM	CC(=O)Nc1ccc(Sc2nc(Nc3cc(C)[nH]n3)c(C)c(N3CCOC[C@H]3C)n2)cc1

IC50	SMILES
< 1000 nM	COc1c(Nc2cc(C)[nH]n2)nc(Sc2ccc(NC(C)=O)cc2)nc1N1CCN(CCNC(C)=O)CC1
< 1000 nM	CNCCN1CCN(c2nc(Sc3ccc(NC(C)=O)cc3)nc(Nc3cc(C)[nH]n3)c2OC)CC1
< 1000 nM	COc1c(Nc2cc(C)[nH]n2)nc(Sc2ccc(S(=O)(=O)Cc3ccccc3F)cc2)nc1N1CCOCC1
< 1000 nM	COc1c(Nc2cc(C)[nH]n2)nc(Sc2ccc(S(=O)(=O)Cc3ccccc3[N+](=O)[O-])cc2)nc1N1CCN(CCN(C)C)CC1
< 1000 nM	COc1c(Nc2cc(C)[nH]n2)nc(Sc2ccc(NC(C)=O)cc2)nc1N1CCOC[C@@H]1C
< 1000 nM	COc1c(Nc2cc(C)[nH]n2)nc(Sc2ccc(NC(C)=O)cc2)nc1N1CCOC[C@H]1C
< 1000 nM	COc1c(Nc2cc(C)[nH]n2)nc(Sc2ccc(NC(N)=O)cc2)nc1N1CCN(CCN(C)C)CC1
< 1000 nM	COc1c(Nc2cc(C)[nH]n2)nc(Sc2ccc(S(=O)(=O)Cc3cccc(C(F)(F)F)c3)cc2)nc1N1CCN(CCN(C)C)CC1
< 1000 nM	COc1c(Nc2cc(C)[nH]n2)nc(Sc2ccc(S(=O)(=O)Cc3cccc(F)c3F)cc2)nc1N1CCN(CCN(C)C)CC1
< 1000 nM	CC(=O)Nc1ccc(Sc2nc(Nc3cc(C)[nH]n3)c(C)c(NC3CCN(C)CC3)n2)cc1
< 1000 nM	CC(=O)Nc1ccc(Sc2nc(Nc3cc(C)[nH]n3)c(C)c(NC3CCNCC3)n2)cc1
< 1000 nM	COc1c(Nc2cc(C)[nH]n2)nc(Sc2ccc(NC(C)=O)cc2)nc1N1CCN(CC(=O)N(C)C)CC1
< 1000 nM	COc1c(Nc2cc(C)[nH]n2)nc(Sc2ccc(NC(C)=O)cc2)nc1NC1CCN(C)CC1
< 1000 nM	COc1c(Nc2cc(C)[nH]n2)nc(Sc2ccc(NC(C)=O)cc2)nc1N1CCN(C(=O)N(C)C)CC1
< 1000 nM	COc1c(Nc2cc(C)[nH]n2)nc(Sc2ccc(NC(C)=O)cc2)nc1N1CCC(CCN2CCOCC2)CC1
< 1000 nM	CCOc1c(Nc2cc(C)[nH]n2)nc(Sc2ccc(NC(=O)C3CC3)cc2)nc1N1CCNCC1 [drawing 122]
< 1000 nM	CCOc1c(Nc2cc(C)[nH]n2)nc(Sc2ccc(NC(=O)C3CC3)cc2)nc1N(CC)CC [drawing 123]
< 1000 nM	CCOc1c(Nc2cc(C)[nH]n2)nc(Sc2ccc(NC(=O)C3CC3)cc2)nc1N(C)CC [drawing 124]
< 1000 nM	CCOc1c(Nc2cc(C)[nH]n2)nc(Sc2ccc(NC(=O)C3CC3)cc2)nc1N(C)C [drawing 125]
100 to 1000 nM	CCOc1c(Nc2cc(C)[nH]n2)nc(Sc2ccc(NC(=O)C3CC3)cc2)nc1N1CCNCC1 [drawing 126]
100 to 1000 nM	CCOc1c(Nc2cc(C)[nH]n2)nc(Sc2ccc(NC(=O)C3CC3)cc2)nc1N(CC)CC [drawing 127]
100 to 1000 nM	CCOc1c(Nc2cc(C)[nH]n2)nc(Sc2ccc(NC(=O)C3CC3)cc2)nc1N(C)CC [drawing 128]
100 to 1000 nM	CCOc1c(Nc2cc(C)[nH]n2)nc(Sc2ccc(NC(=O)C3CC3)cc2)nc1N(C)C [drawing 129]

SMILES	IC50
COc1c(Nc2cc(C)[nH]n2)nc(Sc2ccc(S(=O)(=O)Cc3cccc([N+](=O)[O-])c3F)cc2F)nc1N1CCCCC1 [drawing 379]	< 1000 nM
